Source: patent US8354419B2, “Benzimidazole analogues for the treatment or prevention of flavivirus infections” (Vertex Pharmaceuticals Incorporated, priority 2009, dated 2013)

These molecules were tested on HCV (Ib) RNA replication (assay: Cell-based luciferase reporter HCV (1b) RNA replication assay (replicon cell lines Huh-7 5.2 and ET)). Details: Hepatitis C virus, Huh-7, 96 h, HCV 1b genotype replicon, luciferase readout, 4 days incubation; read-out: EC50_1b.
Set-up: species or system Hepatitis C virus
Excerpt: Cell-Based Luciferase Reporter HCV (Ib) RNA Replication Assay Cell Culture
Replicon cell lines Huh-7, 5.2 and ET which are derived from the Huh-7 hepatocarcinoma cell line are maintained in culture as generally described in Krieger, N; Lohmann, V; Bartenschlager, R. Enhancement of hepatitis C virus RNA replication by cell culture-adaptive mutations. J. Virol. 2001, 75, 4614-4624. The Huh-7, 5.2 cells contain the highly cell culture-adapted replicon I389luc-ubi-neo/NS3-3′/5.1 construct that carries, in addition to the neomycin gene, an integrated copy to the firefly luciferase gene (Krieger, N; Lohmann, V; Bartenschlager, R. Enhancement of hepatitis C virus RNA replication by cell culture-adaptive mutations. J. Virol. 2001, 75, 4614-4624). This cell line allows measurement of HCV RNA replication and translation by measuring luciferase activity. It has been previously shown that the luciferase activity tightly follows the replicon RNA level in these cells (Krieger, N; Lohmann, V; Bartenschlager, R. Enhancement of hepatitis C virus RNA replication by cell culture-adaptive mutations. J. Virol. 2001, 75, 4614-4624). The Huh-7, ET cell line has the same features as those mentioned for Huh-7, 5.2 cell line, except that ET cells are more robust and contain an adaptative mutation in the HCV NS4B gene instead of NS5A. Both cell lines are maintained in cultures at a sub-confluent level (<85%) as the level of replicon RNA is highest in actively proliferating cells. The culture media used for cell passaging consist of DMEM (Gibco BRL Laboratories, Mississauga, ON, Canada) supplemented with 10% foetal bovine serum with 1% penicillin/streptomycin, 1% glutamine, 1% sodium pyruvate, 1% non-essential amino acids, and 180 ug/ml of G418 final concentration. Cells are incubated at 37° C., in an atmosphere of 5% CO2 and passaged twice a week to maintain sub-confluence.
Approximately 3000 viable Huh-7, 5.2 or ET cells (100 μl) are plated per well in a white opaque 96-well microtiter plate. The cell culture media used for the assay is the same as described above except that it contains no G418 and no phenol red. After an incubation period of 3-4 hours at 37° C. in a 5% CO2 incubator, compounds (100 μl) are added at various concentrations. Cells are then further incubated for 4 days at 37° C. in a 5% CO2 incubator. Thereafter, the culture media is removed and cells are lysed by the addition of 95 μL of the luciferase buffer (luciferin substrate in buffered detergent). Cell lysates are incubated at room temperature and protected from direct light for at least 10 minutes. Plates are read for luciferase counts using a luminometer (Wallac MicroBeta Trilux, Perkin ELmer™, MA, USA).
The 50% inhibitory concentrations (IC50s) for inhibitory effect are determined from dose response curves using eleven concentrations per compound in duplicate. Curves are fitted to data points using nonlinear regression analysis, and IC50s are interpolated from the resulting curve using GraphPad Prism software, version 2.0 (GraphPad Software Inc., San Diego, Calif., USA).
Table 2 show compounds representative of the present invention and the EC50 values against the HCV 1b genotype.

Q: With `COC(=O)NC(C(=O)N1C[C@H](O)C[C@H]1c1nc2ccc(-c3ccc(-c4ccc5[nH]c([C@@H]6C[C@@H](O)CN6C(=O)[C@@H](NC(=O)OC)C(C)C)nc5c4)cc3)cc2[nH]1)C(C)C` (stereo in doubt) [Compound 26, ((S)-1-{(2S,4R)-4-Hydroxy-2-[5-(4-{2-[(2S,4R)-4-hydroxy-1-((S)-2-methoxycarbonylamino-3-methyl-butyryl)-pyrrolidin-2-yl]-1H-benzoimidazol-5-yl}-phenyl)-1H-benzoimidazol-2-yl]-pyrrolidine-1-carbonyl}-2-methyl-propyl)-carbamic acid methyl ester] as the molecule, how does the EC50 read?
A: ≤ 5 nM

Q: Which EC50 does the source give for `COC(=O)N[C@H](C(=O)N1CCC[C@H]1c1nc2cc(-c3ccc(-c4ccc5nc([C@@H]6CCCN6C(=O)[C@@H](NC(=O)OC)C(C)C)[nH]c5c4)cc3)ccc2[nH]1)C(C)C` [Compound 1, ((S)-1-{(S)-2-[5-(4-{2-[(S)-1-((S)-2-Methoxycarbonylamino-3-methyl-butyryl)-pyrrolidin-2-yl]-1H-benzoimidazol-5-yl}-phenyl)-1H-benzoimidazol-2-yl]-pyrrolidine-1-carbonyl}-2-methyl-propyl)-carbamic acid methyl ester] here?
A: ≤ 5 nM

Q: How did the EC50 turn out when `COC(=O)N[C@H](C(=O)N1CCC[C@H]1c1nc2ccc(-c3cccc(-c4ccc5nc([C@@H]6CCCN6C(=O)[C@@H](NC(=O)OC)C(C)C)[nH]c5c4)c3)cc2[nH]1)C(C)C` [Compound 2, ((S)-1-{(S)-2-[5-(3-{2-[(S)-1-((S)-2-Methoxycarbonylamino-3-methyl-butyryl)-pyrrolidin-2-yl]-1H-benzoimidazol-5-yl}-phenyl)-1H-benzoimidazol-2-yl]-pyrrolidine-1-carbonyl}-2-methyl-propyl)-carbamic acid methyl ester] was run?
A: 5 to 5000 nM

Q: `COC(=O)N[C@H](C(=O)N1CC(F)(F)C[C@H]1c1nc2cc(-c3ccc(-c4ccc5nc([C@@H]6CC(F)(F)CN6C(=O)[C@@H](NC(=O)OC)C(C)C)[nH]c5c4)cc3)ccc2[nH]1)C(C)C` [Compound 3, ((S)-1-{(S)-2-[5-(4-{2-[(S)-4,4-Difluoro-1-((S)-2-methoxycarbonylamino-3-methyl-butyryl)-pyrrolidin-2-yl]-1H-benzoimidazol-5-yl}-phenyl)-1H-benzoimidazol-2-yl]-4,4-difluoro-pyrrolidine-1-carbonyl}-2-methyl-propyl)-carbamic acid methyl ester] was tested. Which EC50 did it give?
A: ≤ 5 nM

Q: `COC(=O)N(C)[C@H](C(=O)N1CCC[C@H]1c1nc2cc(-c3ccc(-c4ccc5nc([C@@H]6CCCN6C(=O)[C@H](C(C)C)N(C)C(=O)OC)[nH]c5c4)cc3)ccc2[nH]1)C(C)C` [Compound 4, [(S)-1-((S)-2-{5-[4-(2-{(S)-1-[(S)-2-(Methoxycarbonyl-methyl-amino)-3-methyl-butyryl]-pyrrolidin-2-yl}-1H-benzoimidazol-5-yl)-phenyl]-1H-benzoimidazol-2-yl}-pyrrolidine-1-carbonyl)-2-methyl-propyl]-methyl-carbamic acid methyl ester] was tested. Which EC50 did it give?
A: ≤ 5 nM

Q: With `COC(=O)N[C@H](C(=O)N1CCC[C@H]1c1nc2cc(-c3ccc(-c4ccc5nc([C@@H]6CCCN6C(=O)[C@@H](NC(=O)OC)C(C)C)[nH]c5c4)cc3C#N)ccc2[nH]1)C(C)C` [Compound 5, ((S)-1-{(S)-2-[5-(2-Cyano-4-{2-[(S)-1-((S)-2-methoxycarbonylamino-3-methyl-butyryl)-pyrrolidin-2-yl]-1H-benzoimidazol-5-yl}-phenyl)-1H-benzoimidazol-2-yl]-pyrrolidine-1-carbonyl}-2-methyl-propyl)-carbamic acid methyl ester] as the molecule, how does the EC50 read?
A: ≤ 5 nM

Q: For `COC(=O)N[C@H](C(=O)N1CCC[C@H]1c1nc2cc(-c3ccc(-c4ccc5nc([C@@H]6CCCN6C(=O)[C@@H](NC(=O)OC)C(C)C)[nH]c5c4)cn3)ccc2[nH]1)C(C)C` [Compound 6, ((S)-1-{(S)-2-[5-(5-{2-[(S)-1-((S)-2-Methoxycarbonylamino-3-methyl-butyryl)-pyrrolidin-2-yl]-1H-benzoimidazol-5-yl}-pyridin-2-yl)-1H-benzoimidazol-2-yl]-pyrrolidine-1-carbonyl}-2-methyl-propyl)-carbamic acid methyl ester], which EC50 is on record?
A: ≤ 5 nM

Q: `COC(=O)N[C@H](C(=O)N1CCC[C@H]1c1nc2cc(-c3ccc(-c4ccc5nc([C@@H]6CCCN6C(=O)[C@@H](NC(=O)OC)C(C)C)[nH]c5c4)cc3C)ccc2[nH]1)C(C)C` [Compound 7, ((S)-1-{(S)-2-[5-(4-{2-[(S)-1-((S)-2-Methoxycarbonylamino-3-methyl-butyryl)-pyrrolidin-2-yl]-1H-benzoimidazol-5-yl}-2-methyl-phenyl)-1H-benzoimidazol-2-yl]-pyrrolidine-1-carbonyl}-2-methyl-propyl)-carbamic acid methyl ester] was tested. Which EC50 did it give?
A: ≤ 5 nM

Q: Which EC50 does the source give for `COC(=O)N[C@H](C(=O)N1CCC[C@H]1c1nc2cc(-c3ccc(-c4ccc5nc([C@@H]6CCCN6C(=O)[C@@H](NC(=O)OC)C(C)C)[nH]c5c4)cc3OC)ccc2[nH]1)C(C)C` [Compound 8, ((S)-1-{(S)-2-[5-(2-Methoxy-4-{2-[(S)-1-((S)-2-methoxycarbonylamino-3-methyl-butyryl)-pyrrolidin-2-yl]-1H-benzoimidazol-5-yl}-phenyl)-1H-benzoimidazol-2-yl]-pyrrolidine-1-carbonyl}-2-methyl-propyl)-carbamic acid methyl ester] here?
A: ≤ 5 nM

Q: How did the EC50 turn out when `COC(=O)N[C@H](C(=O)N1CCC[C@H]1c1nc2cc(-c3ccc(-c4ccc5nc([C@@H]6CCCN6C(=O)[C@@H](NC(=O)OC)C(C)C)[nH]c5c4)cc3F)ccc2[nH]1)C(C)C` [Compound 9, ((S)-1-{(S)-2-[5-(2-Fluoro-4-{2-[(S)-1-((S)-2-methoxycarbonylamino-3-methyl-butyryl)-pyrrolidin-2-yl]-1H-benzoimidazol-5-yl}-phenyl)-1H-benzoimidazol-2-yl]-pyrrolidine-1-carbonyl}-2-methyl-propyl)-carbamic acid methyl ester] was run?
A: ≤ 5 nM

Q: How did the EC50 turn out when `COC(=O)N[C@H](C(=O)N1CCC[C@H]1c1nc2cc(-c3ccc(-c4ccc5[nH]c([C@@H]6CCCN6C(=O)[C@@H](NC(=O)OC)C(C)C)nc5c4)c(Cl)c3)ccc2[nH]1)C(C)C` [Compound 10, ((S)-1-{(S)-2-[5-(2-Chloro-4-{2-[(S)-1-((S)-2-methoxycarbonylamino-3-methyl-butyryl)-pyrrolidin-2-yl]-1H-benzoimidazol-5-yl}-phenyl)-1H-benzoimidazol-2-yl]-pyrrolidine-1-carbonyl}-2-methyl-propyl)-carbamic acid methyl ester] was run?
A: ≤ 5 nM

Q: Which EC50 does the source give for `COC(=O)N[C@H](C(=O)N1CCC[C@H]1c1nc2cc(-c3ccc(-c4ccc5[nH]c([C@@H]6CCCN6C(=O)[C@@H](NC(=O)OC)C(C)C)nc5c4)c(C#N)n3)ccc2[nH]1)C(C)C` [Compound 11, ((S)-1-{(S)-2-[5-(2-Cyano-6-{2-[(S)-1-((S)-2-methoxycarbonylamino-3-methyl-butyryl)-pyrrolidin-2-yl]-1H-benzoimidazol-5-yl}-pyridin-3-yl)-1H-benzoimidazol-2-yl]-pyrrolidine-1-carbonyl}-2-methyl-propyl)-carbamicacid methyl ester] here?
A: 5 to 5000 nM

Q: Which EC50 does the source give for `COC(=O)N[C@H](C(=O)N1CCC[C@H]1c1nc2ccc(-c3cc(OC)c(-c4ccc5nc([C@@H]6CCCN6C(=O)[C@@H](NC(=O)OC)C(C)C)[nH]c5c4)cc3OC)cc2[nH]1)C(C)C` [Compound 12] here?
A: ≤ 5 nM

Q: For `COC(=O)N[C@H](C(=O)N1CCC[C@H]1c1nc2cc(-c3ccc(-c4ccc5[nH]c([C@@H]6CCCN6C(=O)[C@@H](NC(=O)OC)C(C)C)nc5c4)c(C)c3C)ccc2[nH]1)C(C)C` [Compound 13, ((S)-1-{(S)-2-[5-(4-{2-[(S)-1-((S)-2-Methoxycarbonylamino-3-methyl-butyryl)-pyrrolidin-2-yl]-1H-benzoimidazol-5-yl}-2,3-dimethyl-phenyl)-1H-benzoimidazol-2-yl]-pyrrolidine-1-carbonyl}-2-methyl-propyl)-carbamic acid methyl ester], which EC50 is on record?
A: ≤ 5 nM
